Source: patent publication US20110045593A1, “Transgenically mitigating the establishment and spread of transgenic algae in natural ecosystems by suppressing the activity of carbonic anhydrase” (priority 2009, published 2011)

Legend:
[1] = system: Nannochloropsis oculata CS-179; assay: Photosynthetic carbon dioxide fixation measured as oxygen evolution with an oxygen electrode, carbonic anhydrase suppressed by inhibitor; format: cell-based; settings: 300 μM, incubated just prior to measurement
Description: Cultures were incubated with ethoxyzolamide just prior to measurement.
Measurements of O2 concentrations are performed using a Clark type O2 electrode (Pasco Scientific, Roseville, Calif., USA). 20 ml of cell suspension corresponding to 15 μg chlorophyll/ml are placed in the O2 electrode chamber, at relevant temperature. Cells are exposed to various light intensities and net O2 production is measured. Dark incubations are performed in air-tight vessels to follow light-independent O2 consumption.

[2] = system: non-transgenic algal or cyanobacterial cells; assay: In vivo pds assay: culture in fluorochloridone solution; format: cell-based; settings: 0.1 μM in standard algae or cyanobacteria culture media
Description: In vivo pds assay. Putative transformed algal or cyanobacterial cells were cultured in a solution of 0.1 μM fluorochloridone in standard algae or cyanobacteria culture media.

| Compound | photosynthetic carbon dioxide fixation (measured as oxygen evolution) ([1]; high CO2 concentration (FIG. 1A; more than 2%)) | photosynthetic carbon dioxide fixation (measured as oxygen evolution) ([1]; high CO2 concentration (FIG. 1A; more than 2%), listed as inhibitor) | photosynthetic carbon dioxide fixation (measured as oxygen evolution) ([1]; low CO2 concentration (FIG. 1B)) | photosynthetic carbon dioxide fixation (measured as oxygen evolution) ([1]; low CO2 concentration (FIG. 1B), listed as inhibitor) | killing of non-transgenic cells [2] |
| --- | --- | --- | --- | --- | --- |
| CCOc1ccc2nc(S(N)(=O)=O)sc2c1 [ethoxyzolamide, 6-ethoxy-2-benzothiazolesulfonamide] | no effect | no difference in photosynthesis | decreases photosynthetic carbon dioxide fixation | severely deficient in photosynthesis | – |
| O=C1C(Cl)C(CCl)CN1c1cccc(C(F)(F)F)c1 (centres unmarked) [fluorochloridone] | – | – | – | – | all non-transgenic cells are killed |
